From BindingDB's records for doi:10.1016/j.ejmech.2021.113695 (Griffith University, 2021) come the findings set out here.

Each structure is given as a SMILES string.

This assay in a line: Inhibition of NS2B-NS3 intramolecular cleavage in Dengue virus 2 infected in LLC-MK2 cells assessed as inhibition of viral replication measured afer 48 hrs by ELISA. (ELISA stands for enzyme-linked immunosorbent assay.)

As to `O=C1c2c(O)ccc([N+](=O)[O-])c2C(=O)c2c([N+](=O)[O-])ccc(O)c21`, the EC50 (in general, the concentration giving half of the maximal effect) was determined as 4.2 µM.
